According to patent publication US20060235076A1, “Medicinal composition for treating infection with drug-resistant staphylococcus aureus” (priority 2003, published 2006):
Converted amounts (≈) assume the structure as drawn. Read-outs that look alike come from different tables or passages of the source.

Assays:
MRSA and MSSA = test: Antibacterial activity of gallic acid, various gallates and multivalent phenol derivatives alone (agar plate dilution method, MIC); assay type: cell-based, Staphylococcus aureus; conditions: Staphylococcus aureus; for MIC: read-out: MIC alone
Method: According to the agar plate dilution method defined by Japan Society of Chemotherapy, MIC (Minimum inhibitory concentration) was determined. CAMHA was prepared by adding 50 mg/l of Ca-ion, 25 mg/l of Mg-ion, and 2% of NaCl to Mueller-Hinton II Agar (MHA), and it was used as a medium for use in the measurement of sensitivity. The bacterial liquid was incubated at 37° C. overnight and diluted to 10^6 CFU/ml with saline.
MIC for gallic acid, various gallates and multivalent phenol derivatives alone with MRSA and MSSA were determined as described in experiment 2.

[1] = system: MRSA COL and MRSA Strain No. 5; test: Potentiating effect of various gallates for antibacterial activity of oxacillin (MIC by broth microdilution method and FIC); assay type: cell-based, Staphylococcus aureus; conditions: for FIC value: combination with oxacillin; for antibacterial activity when used alone / effect of the combination use with oxacillin by FIC values: COL Strain and Strain No. 5
Method: According to the broth microdilution method defined by Japan Society of Chemotherapy, MIC was determined. CAMHA was prepared by adding 50 mg/l of Ca-ion, 25 mg/l of Mg-ion, and 2% of NaCl to MHB (Mueller-Hinton Broth), and it was used as a medium for use in the measurement of sensitivity. In 96-well microplates 100 μl of the medium for use in the measurement of sensitivity containing drugs was dispensed. The bacterial liquid was incubated at 37° C. overnight, diluted with saline and added to the plate so that the final concentration of the bacteria was 5×10^5 CFU/well. […] FIC (fractional inhibitory concentration) was calculated from the result and the potency of the effect of the combination use was evaluated.

[2] = ATCC 6538 / MRSA / MSSA, ATCC6538

Molecule | MIC (MRSA and MSSA; COL) [µg/mL] | MIC (MRSA and MSSA; MRSA #1) [µg/mL] | MIC (MRSA and MSSA; MRSA #2) [µg/mL] | MIC (MRSA and MSSA; MRSA #3) [µg/mL] | MIC (MRSA and MSSA; MRSA #4) [µg/mL] | MIC (MRSA and MSSA; MRSA #5) [µg/mL] | MIC (MRSA and MSSA; MRSA #6) [µg/mL] | MIC (MRSA and MSSA; MRSA #7) [µg/mL] | MIC (MRSA and MSSA; MRSA #8) [µg/mL] | MIC (MRSA and MSSA; MRSA #9) [µg/mL] | MIC (MRSA and MSSA; MRSA #10) [µg/mL] | MIC (MRSA and MSSA; MRSA #12) [µg/mL] | MIC (MRSA and MSSA; MRSA #16) [µg/mL] | MIC (MRSA and MSSA; MRSA #17) [µg/mL] | MIC (MRSA and MSSA; MRSA #18) [µg/mL] | MIC (MRSA and MSSA; MRSA #20) [µg/mL] | MIC (MRSA and MSSA; MRSA #21) [µg/mL] | MIC (MRSA and MSSA; MRSA #22) [µg/mL] | FIC value ([1]; MRSA COL) | FIC value ([1]; MRSA Strain No. 5) | also measured
CCCOC(=O)c1cc(O)c(O)c(O)c1 [Propyl gallate, n-propyl gallate] | 125 (≈ 589 µM) | 125 (≈ 589 µM) | 62.5 (≈ 295 µM) | 125 (≈ 589 µM) | 125 (≈ 589 µM) | 125 (≈ 589 µM) | 62.5 (≈ 295 µM) | 125 (≈ 589 µM) | 125 (≈ 589 µM) | 62.5 (≈ 295 µM) | 62.5 (≈ 295 µM) | 125 (≈ 589 µM) | 125 (≈ 589 µM) | 62.5 (≈ 295 µM) | 62.5 (≈ 295 µM) | 125 (≈ 589 µM) | 125 (≈ 589 µM) | 125 (≈ 589 µM) | 0.258 | 0.258 | MIC (MRSA and MSSA; [2]): 125 µg/mL (≈ 589 µM); MIC (MRSA and MSSA; MRSA #24): 125 µg/mL (≈ 589 µM); MIC (MRSA and MSSA; MSSA #1003): 125 µg/mL (≈ 589 µM); MIC (MRSA and MSSA; MSSA #1010): 125 µg/mL (≈ 589 µM); MIC (MRSA and MSSA; MSSA #1020): 125 µg/mL (≈ 589 µM); MIC (MRSA and MSSA; MSSA #1023): 62.5 µg/mL (≈ 295 µM); MIC (MRSA and MSSA; MSSA #1029): 62.5 µg/mL (≈ 295 µM); MIC (MRSA and MSSA; MSSA #1032): 125 µg/mL (≈ 589 µM); MIC50 (MRSA and MSSA; compound alone, over all strains of Table 3-1, read-out: MIC50): 125 µg/mL (≈ 589 µM)
CCCCCCCCOC(=O)c1cc(O)c(O)c(O)c1 [Octyl gallate, n-octyl gallate] | 31.3 (≈ 111 µM) | 31.3 (≈ 111 µM) | 31.3 (≈ 111 µM) | 31.3 (≈ 111 µM) | 31.3 (≈ 111 µM) | 31.3 (≈ 111 µM) | 31.3 (≈ 111 µM) | 31.3 (≈ 111 µM) | 31.3 (≈ 111 µM) | 31.3 (≈ 111 µM) | 15.6 (≈ 55.3 µM) | 31.3 (≈ 111 µM) | 31.3 (≈ 111 µM) | 31.3 (≈ 111 µM) | 31.3 (≈ 111 µM) | 31.3 (≈ 111 µM) | 31.3 (≈ 111 µM) | 31.3 (≈ 111 µM) | 0.252 | 0.75 | MIC50 (MRSA and MSSA): 31.3 µg/mL (≈ 111 µM); MIC (MRSA and MSSA; ATCC 6538 / MRSA / MSSA): 31.3 µg/mL (≈ 111 µM); MIC (MRSA and MSSA; MRSA #24): 31.3 µg/mL (≈ 111 µM); MIC (MRSA and MSSA; MSSA #1003): 31.3 µg/mL (≈ 111 µM); MIC (MRSA and MSSA; MSSA #1010): 31.3 µg/mL (≈ 111 µM); MIC (MRSA and MSSA; MSSA #1020): 31.3 µg/mL (≈ 111 µM); MIC (MRSA and MSSA; MSSA #1023): 31.3 µg/mL (≈ 111 µM); MIC (MRSA and MSSA; MSSA #1029): 31.3 µg/mL (≈ 111 µM); MIC (MRSA and MSSA; MSSA #1032): 31.3 µg/mL (≈ 111 µM); antibacterial activity when used alone [1]: most potent
CCCCCCOC(=O)c1cc(O)c(O)c(O)c1 [Hexyl gallate, n-hexyl gallate] | 31.3 (≈ 123 µM) | 62.5 (≈ 246 µM) | 31.3 (≈ 123 µM) | 31.3 (≈ 123 µM) | 31.3 (≈ 123 µM) | 31.3 (≈ 123 µM) | 31.3 (≈ 123 µM) | 31.3 (≈ 123 µM) | 31.3 (≈ 123 µM) | 31.3 (≈ 123 µM) | 31.3 (≈ 123 µM) | 62.5 (≈ 246 µM) | 62.5 (≈ 246 µM) | 62.5 (≈ 246 µM) | 62.5 (≈ 246 µM) | 62.5 (≈ 246 µM) | 62.5 (≈ 246 µM) | 62.5 (≈ 246 µM) | 0.5 | 0.502 | MIC50 (MRSA and MSSA): 62.5 µg/mL (≈ 246 µM); MIC (MRSA and MSSA; [2]): 31.3 µg/mL (≈ 123 µM); MIC (MRSA and MSSA; MRSA #24): 62.5 µg/mL (≈ 246 µM); MIC (MRSA and MSSA; MSSA #1003): 62.5 µg/mL (≈ 246 µM); MIC (MRSA and MSSA; MSSA #1010): 62.5 µg/mL (≈ 246 µM); MIC (MRSA and MSSA; MSSA #1020): 62.5 µg/mL (≈ 246 µM); MIC (MRSA and MSSA; MSSA #1023): 62.5 µg/mL (≈ 246 µM); MIC (MRSA and MSSA; MSSA #1029): 62.5 µg/mL (≈ 246 µM); MIC (MRSA and MSSA; MSSA #1032): 62.5 µg/mL (≈ 246 µM)
catechin gallate |  |  |  |  |  |  |  |  |  |  |  |  |  |  |  |  |  |  | <0.25 | 0.064 | effect of the combination use with oxacillin by FIC values [1]: most potent
CCCCCCCCCOC(=O)c1cc(O)c(O)c(O)c1 [Nonyl gallate, n-nonyl gallate] | 15.7 (≈ 53 µM) | 15.7 (≈ 53 µM) | 15.7 (≈ 53 µM) | 15.7 (≈ 53 µM) | 15.7 (≈ 53 µM) | 15.7 (≈ 53 µM) | 15.7 (≈ 53 µM) | 15.7 (≈ 53 µM) | 15.7 (≈ 53 µM) | 15.7 (≈ 53 µM) | 15.7 (≈ 53 µM) | 15.7 (≈ 53 µM) | 15.7 (≈ 53 µM) | 15.7 (≈ 53 µM) | 15.7 (≈ 53 µM) | 15.7 (≈ 53 µM) | 15.7 (≈ 53 µM) | 15.7 (≈ 53 µM) | 0.625 | 0.502 | MIC50 (MRSA and MSSA): 15.7 µg/mL (≈ 53 µM); MIC (MRSA and MSSA; ATCC 6538 / MRSA / MSSA): 15.7 µg/mL (≈ 53 µM); MIC (MRSA and MSSA; MRSA #24): 15.7 µg/mL (≈ 53 µM); MIC (MRSA and MSSA; MRSA and MSSR): 15.7 µg/mL (≈ 53 µM); MIC (MRSA and MSSA; MSSA #1003): 15.7 µg/mL (≈ 53 µM); MIC (MRSA and MSSA; MSSA #1010): 15.7 µg/mL (≈ 53 µM); MIC (MRSA and MSSA; MSSA #1020): 15.7 µg/mL (≈ 53 µM); MIC (MRSA and MSSA; MSSA #1023): 15.7 µg/mL (≈ 53 µM); MIC (MRSA and MSSA; MSSA #1029): 15.7 µg/mL (≈ 53 µM); MIC (MRSA and MSSA; MSSA #1032): 15.7 µg/mL (≈ 53 µM); antibacterial activity when used alone [1]: most potent
O=C(O[C@@H]1Cc2c(O)cc(O)cc2O[C@@H]1c1ccc(O)c(O)c1)c1cc(O)c(O)c(O)c1 [Epicatechin gallate, epicatechin gallate] |  |  |  |  |  |  |  |  |  |  |  |  |  |  |  |  |  |  | 0.127 | 0.188 | effect of the combination use with oxacillin by FIC values [1]: more potent effects of the combination use
O=C(O[C@@H]1Cc2c(O)cc(O)cc2O[C@H]1c1cc(O)c(O)c(O)c1)c1cc(O)c(O)c(O)c1 [Gallocatechin gallate, gallocatechin gallate] |  |  |  |  |  |  |  |  |  |  |  |  |  |  |  |  |  |  | 0.281 | 0.188 | effect of the combination use with oxacillin by FIC values [1]: more potent effects of the combination use
